Values after ≈ are worked out from the molar mass of the structure shown.
Legend:
Type in all cases: functional
Enterococcus = test: Antibacterial activity against vancomycin-resistant Enterococcus ATCC 700221 assessed as inhibition of bacterial growth measured after 24 hrs by MH broth based assay
Bacillus subtilis = test: Antibacterial activity against Bacillus subtilis ATCC 6633 assessed as inhibition of bacterial growth measured after 24 hrs by MH broth based assay
Staphylococcus aureus [1] = test: Antibacterial activity against Staphylococcus aureus ATCC 29213 assessed as inhibition of bacterial growth measured after 24 hrs by MH broth based assay
Staphylococcus aureus [2] = test: Antibacterial activity against methicillin-resistant Staphylococcus aureus ATCC 43300 assessed as inhibition of bacterial growth measured after 24 hrs by MH broth based assay
Streptococcus pneumoniae = test: Antibacterial activity against Streptococcus pneumoniae ATCC 49619 assessed as inhibition of bacterial growth measured after 24 hrs by MH broth based assay
[3] = test system: Staphylococcus epidermidis; test: Antibacterial activity against methicillin-resistant Staphylococcus epidermidis ATCC 51625 assessed as inhibition of bacterial growth measured after 24 hrs by MH broth based assay
Klebsiella pneumoniae = test: Antibacterial activity against Klebsiella pneumonia CMCC (B) 46117 assessed as inhibition of bacterial growth measured after 24 hrs by MH broth based assay
Escherichia coli [4] = test: Antibacterial activity against Escherichia coli ATCC 25922 assessed as inhibition of bacterial growth measured after 24 hrs by MH broth based assay
Proteus = test: Antibacterial activity against Proteus CMCC (B) 49027 assessed as inhibition of bacterial growth measured after 24 hrs by MH broth based assay
Escherichia coli [5] = test: Antibacterial activity against Escherichia coli MG1655 assessed as inhibition of bacterial growth measured after 24 hrs by MH broth based assay
Escherichia coli [6] = test: Antibacterial activity against Escherichia coli MG1655 harbouring acrB gene assessed as inhibition of bacterial growth measured after 24 hrs by MH broth based assay

SMILES	MIC (Enterococcus) [µg/mL]	MIC (Bacillus subtilis) [µg/mL]	MIC (Staphylococcus aureus [1]) [µg/mL]	MIC (Staphylococcus aureus [2]) [µg/mL]	MIC (Streptococcus pneumoniae) [µg/mL]	MIC [3] [µg/mL]	MIC (Klebsiella pneumoniae) [µg/mL]	MIC (Escherichia coli [4]) [µg/mL]	MIC (Proteus) [µg/mL]	MIC (Escherichia coli [5]) [µg/mL]	MIC (Escherichia coli [6]) [µg/mL]
C=C[C@]1(C)C[C@@H](OC(=O)CSc2cc[n+](C(C)C)cc2)[C@]2(C)[C@H](C)CC[C@]3(CCC(=O)[C@H]32)[C@@H](C)[C@@H]1O.[I-]	64	64	0.5	1	1	2	64	64	64	64	2
C=C[C@]1(C)C[C@@H](OC(=O)CSc2cc[n+](Cc3ccc(C)cc3)cc2)[C@]2(C)[C@H](C)CC[C@]3(CCC(=O)[C@H]32)[C@@H](C)[C@@H]1O.[I-]	64	> 64	0.5	0.5	< 0.031	0.063	32	64	> 64	64	2
C=C[C@]1(C)C[C@@H](OC(=O)CSc2cc[n+](CC(=O)N3CCOCC3)cc2)[C@]2(C)[C@H](C)CC[C@]3(CCC(=O)[C@H]32)[C@@H](C)[C@@H]1O.[I-]	64	> 64	16	16	4	8	> 64	> 64	> 64	64	8
C=C[C@]1(C)C[C@@H](OC(=O)CSc2cc[n+](CC(=O)N3CCC(CO)CC3)cc2)[C@]2(C)[C@H](C)CC[C@]3(CCC(=O)[C@H]32)[C@@H](C)[C@@H]1O.[I-]	64	64	2	2	2	4	64	64	> 64	64	16
C=C[C@]1(C)C[C@@H](OC(=O)CSc2cc[n+](Cc3ccc(-c4ccccc4C#N)cc3)cc2)[C@]2(C)[C@H](C)CC[C@]3(CCC(=O)[C@H]32)[C@@H](C)[C@@H]1O.[I-]	32	32	1	1	< 0.031	0.125	32	64	> 64	64	8
C=C[C@]1(C)C[C@@H](OC(=O)CSc2cc[n+](CCO)cc2)[C@]2(C)[C@H](C)CC[C@]3(CCC(=O)[C@H]32)[C@@H](C)[C@@H]1O.[I-]	32	64	1	1	0.5	1	32	64	64	64	0.5
C#CCC[n+]1ccc(SCC(=O)O[C@@H]2C[C@@](C)(C=C)[C@@H](O)[C@H](C)[C@]34CCC(=O)[C@H]3[C@@]2(C)[C@H](C)CC4)cc1.[I-]	64	64	0.5	0.5	0.125	0.25	64	64	> 64	64	1
C=C[C@]1(C)C[C@@H](OC(=O)CSc2cc[n+](CC#CC)cc2)[C@]2(C)[C@H](C)CC[C@]3(CCC(=O)[C@H]32)[C@@H](C)[C@@H]1O.[I-]	32	> 64	0.125	0.25	< 0.031	0.063	64	64	> 64	64	1
C=C[C@]1(C)C[C@@H](OC(=O)CSc2cc[n+](CCCCCCCCCC)cc2)[C@]2(C)[C@H](C)CC[C@]3(CCC(=O)[C@H]32)[C@@H](C)[C@@H]1O.[I-]	4	2	0.25	1	0.125	0.5	2	16	64	16	1
C=C[C@]1(C)C[C@@H](OC(=O)CSc2cc[n+](CCC)cc2)[C@]2(C)[C@H](C)CC[C@]3(CCC(=O)[C@H]32)[C@@H](C)[C@@H]1O.[I-]	16	64	0.25	0.25	0.063	0.125	32	64	64	64	0.5
C=C[C@]1(C)C[C@@H](OC(=O)CSc2cc[n+](CCCC)cc2)[C@]2(C)[C@H](C)CC[C@]3(CCC(=O)[C@H]32)[C@@H](C)[C@@H]1O.[I-]	16	64	0.25	0.25	< 0.031	0.063	16	64	> 64	64	0.5
C=C[C@]1(C)C[C@@H](OC(=O)CSc2cc[n+](CC(=O)N3CCCC3)cc2)[C@]2(C)[C@H](C)CC[C@]3(CCC(=O)[C@H]32)[C@@H](C)[C@@H]1O.[I-]	64	> 64	4	4	1	2	64	64	> 64	64	4
C=CCC[n+]1ccc(SCC(=O)O[C@@H]2C[C@@](C)(C=C)[C@@H](O)[C@H](C)[C@]34CCC(=O)[C@H]3[C@@]2(C)[C@H](C)CC4)cc1.[I-]	16	64	0.25	0.25	0.125	0.25	16	64	64	32	0.25
C=C[C@]1(C)C[C@@H](OC(=O)CSc2cc[n+](CC(=O)O)cc2)[C@]2(C)[C@H](C)CC[C@]3(CCC(=O)[C@H]32)[C@@H](C)[C@@H]1O.[I-]	64	> 64	8	4	2	2	> 64	> 64	> 64	> 64	32
C=CC[n+]1ccc(SCC(=O)O[C@@H]2C[C@@](C)(C=C)[C@@H](O)[C@H](C)[C@]34CCC(=O)[C@H]3[C@@]2(C)[C@H](C)CC4)cc1.[I-]	32	64	0.5	1	0.25	0.25	64	64	> 64	64	1
CN[C@H](CC(C)C)C(=O)N[C@H]1C(=O)N[C@@H](CC(N)=O)C(=O)N[C@H]2C(=O)N[C@H]3C(=O)N[C@H](C(=O)N[C@H](C(=O)O)c4cc(O)cc(O)c4-c4cc3ccc4O)[C@H](O)c3ccc(c(Cl)c3)Oc3cc2cc(c3O[C@@H]2O[C@H](CO)[C@@H](O)[C@H](O)[C@H]2O[C@H]2C[C@](C)(N)[C@H](O)[C@H](C)O2)Oc2ccc(cc2Cl)[C@H]1O [VANCOMYCIN]	64 (≈ 44.2 µM)	0.125 (≈ 0.0863 µM)	–	–	0.25 (≈ 0.173 µM)	0.5 (≈ 0.345 µM)	> 64	> 64	> 64	> 64	> 64

From ChEMBL document CHEMBL5346923, “Novel pyridinium cationic pleuromutilin analogues overcoming bacterial multidrug resistance” (Eur J Med Chem, 2023)
